Literature values, collected in patent US10519176B2, “Crystalline forms” (GRUNENTHAL GMBH, priority 2010, dated 2019).

What was measured:
[1] = according to FDA SBA
[2] = in vivo
[3] = according to FDA SBA; remark: listed apart in the source

O=P(O)(O)C(O)(Cn1ccnc1)P(=O)(O)O [Zoledronic acid, (1-hydroxy-2-imidazol-1-yl-1-phosphono-ethyl)phosphonic acid]
permeability in the GI tract [1]: poor permeability
solubility in 0.1 N HCl solution (0.1 N HCl solution): sparingly soluble
solubility in 0.1 N NaOH (0.1 N NaOH): freely soluble
solubility in various organic solvents (various organic solvents): practically insoluble
solubility in water (water): sparingly soluble
gastric and intestinal irritations [2]: severe gastric and intestinal irritations
oral bioavailability [3]: approximately 1%
